In patent US10336755B2, “Fused pyrazole derivatives, preparation method thereof, and use thereof in treatment of cancers, inflammation and immune diseases” (Beijing InnoCare Pharma Tech Co., Ltd., priority 2016, dated 2019):

Molecular target: Bruton tyrosine kinase (BTK) (Homo sapiens (Human), UniProt Q06187)
Assay: BTK Enzyme Activity Testing (in vitro kinase assay, ADP-Glo kinase assay kit)
Type: biochemical
Conditions: BTK kinase (full length with His-Tag), 50 uM ATP in substrate solution, 30 min pre-incubation, 60 min reaction, 10 concentration points
Description: An in vitro kinase assay is used to evaluate the effect of the inventive compounds on Bruton tyrosine kinase (BTK) activity.
The experimental method is generally described as follows:
In vitro activity of BTK is measured by detecting ADP produced in a kinase reaction with an ADP-Glo™ kinase assay kit from Promega Company. In the kinase assay, the kinase consumes ATP to phosphorylate the substrate, while producing ADP. ADP-Glo reagent then terminates the kinase reaction and completely consumes the remaining ATP. Finally, a kinase detection reagent is added to convert generated ADP into new ATP. Luciferase in the detection reagent is capable of catalyzing fluorescein with the participation of ATP and O2 to produce oxidized fluorescein, AMP, and generate light quantum, thereby converting a chemical signal into an optical signal (Luminecence). The intensity of optical signal is positively correlated with the production of ADP in the kinase reaction, so that the activity of kinase BTK can be thereby quantitatively determined.
All assays are conducted at a constant temperature of 23° C., using a Corning 3674 Type white 384-well plate; the BTK kinase (full length with His-Tag) is expressed and purified internally by the company; the substrate of kinase is polypeptide (4:1 Glu,Tyr) (from SignalChem) and ATP (from Sigma); and a microplate reader EnVision (Perkin Elmer) is used for reading an optical signal. The assay buffer includes 40 mM Tris-HCl (pH 7.5), 10 mM MgCl2 (Sigma), 2 mM MnCl2 (Sigma), 0.05 mM DTT (Sigma), and 0.01% BSA (Sigma); the BTK kinase is diluted with the assay buffer to a concentration of 1.6 ng/uL as a kinase reaction solution; and the substrate reaction solution comprises 0.2 mg/mL polypeptide substrate and 50 uM ATP.
Compound's IC50 is calculated from 10 concentration points by the following method. The compound is dissolved and diluted in 100% DMSO to a concentration of 1 mM, followed by a serial 3× dilution with DMSO to a minimum concentration of 0.05 uM. Each concentration stock is further diluted 40× with the assay buffer. To a 384-well assay plate are added 1 uL of a series of compound solutions and 2 uL of the kinase reaction solution, followed by mixing homogeneously, and incubating in the dark at room temperature. After in the dark for 30 min, 2 uL of the substrate reaction solution is added to allowed the total reaction volume to 5 uL. The reaction mixture is incubated in the dark at room temperature in the dark for another 60 min. An equal volume of 5 uL ADP-Glo™ reagent is then added to terminate the reaction. The resulting mixture is homogeneously mixed, and stands at room temperature for 40 min. Finally, 10 uL of the kinase detection reagent is added, stands at room temperature for 30 min, and then a value is read on Envision.
Percent inhibition is calculated based on the following equation: Inhibition %=[1−(RLUcompound−RLUmin)/(RLUmax−RLUmin)]×100 wherein RLUcompound is the luminescence reading at a given concentration of compound, RLUmin is the luminescence reading in the absence of kinase, and RLUmax is the luminescence reading in the absence of compound. IC50 of the compound is calculated by using a XLfit program in Excel.

Chain of Bruton tyrosine kinase (BTK) (Q06187 whole entry): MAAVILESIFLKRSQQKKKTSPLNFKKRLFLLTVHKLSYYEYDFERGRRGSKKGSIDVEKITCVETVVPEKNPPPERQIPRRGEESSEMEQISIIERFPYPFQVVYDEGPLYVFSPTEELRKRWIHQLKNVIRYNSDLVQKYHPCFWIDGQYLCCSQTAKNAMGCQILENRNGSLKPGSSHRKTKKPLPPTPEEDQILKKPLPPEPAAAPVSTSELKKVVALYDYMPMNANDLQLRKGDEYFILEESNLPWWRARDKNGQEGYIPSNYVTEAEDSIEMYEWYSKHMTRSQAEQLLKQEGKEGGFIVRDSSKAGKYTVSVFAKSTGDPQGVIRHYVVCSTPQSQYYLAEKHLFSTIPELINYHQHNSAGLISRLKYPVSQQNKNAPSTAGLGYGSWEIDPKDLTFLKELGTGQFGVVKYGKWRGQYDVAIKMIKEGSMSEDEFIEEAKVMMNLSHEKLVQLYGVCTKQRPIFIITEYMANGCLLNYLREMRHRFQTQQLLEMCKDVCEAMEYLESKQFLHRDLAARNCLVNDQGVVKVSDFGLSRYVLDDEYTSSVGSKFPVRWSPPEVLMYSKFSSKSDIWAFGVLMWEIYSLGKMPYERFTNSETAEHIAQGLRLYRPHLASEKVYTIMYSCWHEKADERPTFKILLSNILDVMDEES

Row | SMILES | IC50 [µM]
1 | CC#CC(=O)N1CCCC(c2cc3cn[nH]c3c(-c3ccc(Oc4ccccc4)cc3)n2)C1 (centres unmarked) [Compound 17, 1-(3-(7-(4-phenoxyphenyl)-1H-pyrazolo[3,4-c]pyridin-5-yl)piperidin-1-yl)but-2-yn-1-one] | 0.1 to 0.5
2 | C=CC(=O)NC1CCN(c2cc3cn[nH]c3c(-c3ccc(Oc4ccccc4)cc3)n2)C1 (centres unmarked) [Compound 10, N-(1-(7-(4-phenoxyphenyl)-1H-pyrazolo[3,4-c]pyridin-5-yl)pyrrolidin-3-yl)acrylamide] | < 0.1
3 | C=CC(=O)N1CC[C@H](c2cc3cn[nH]c3c(-c3ccc(Oc4ccccc4)cc3)n2)C1 [Compound 22a, (S)-1-(3-(7-(4-phenoxyphenyl)-1H-pyrazolo[3,4-c]pyridin-5-yl)pyrrolidin-1-yl)prop-2-en-1-one] | < 0.1
4 | C=CC(=O)N1CCCC(c2cc3cn[nH]c3c(-c3ccc(OC4COC4)cc3)n2)C1 (centres unmarked) [Compound 2, 1-(3-(7-(4-(oxetan-3-oxy)phenyl)-1H-pyrazolo[3,4-c]pyridin-5-yl)piperidin-1-yl)prop-2-en-1-one] | 0.1 to 0.5
5 | CN(C)C/C=C/C(=O)N1CCCC(c2cc3cn[nH]c3c(-c3ccc(Oc4ccccc4)cc3)n2)C1 (centres unmarked) [Compound 4, (E)-4-(dimethylamino)-1-(3-(7-(4-phenoxyphenyl)-1H-pyrazolo[3,4-c]pyridin-5-yl)piperidin-1-yl)but-2-en-1-one] | < 0.1
6 | C=CC(=O)N1CCC(c2cc3cn[nH]c3c(-c3ccc(Oc4ccccc4)cc3)n2)CC1 [Compound 7, 1-(4-(7-(4-phenoxyphenyl)-1H-pyrazolo[3,4-c]pyridin-5-yl)piperidin-1-yl)prop-2-en-1-one] | < 0.1
7 | C=CC(=O)Nc1cccc(-c2cc3cn[nH]c3c(-c3ccc(Oc4ccccc4)cc3)n2)c1 [Compound 8, N-(3-(7-(4-phenoxyphenyl)-1H-pyrazolo[3,4-c]pyridin-5-yl)phenyl)acrylamide] | < 0.1
8 | C=CS(=O)(=O)N1CCCC(c2cc3cn[nH]c3c(-c3ccc(Oc4ccccc4)cc3)n2)C1 (centres unmarked) [Compound 5, 7-(4-phenoxyphenyl)-5-(1-(ethenylsulfonyl)piperidin-3-yl)-1H-pyrazolo[3,4-c]pyridine] | < 0.1
9 | C=CC(=O)N1CCCC(c2cc3cn[nH]c3c(-c3ccc(CN4CCOCC4)cc3)n2)C1 (centres unmarked) [Compound 1, 1-(3-(7-(4-(morpholinomethyl)phenyl)-1H-pyrazolo[3,4-c]pyridin-5-yl)piperidin-1-yl)prop-2-en-1-one] | 0.1 to 0.5
10 | C=CC(=O)N1CCC(Nc2cc3cn[nH]c3c(-c3ccc(Oc4ccccc4)cc3)n2)C1 (centres unmarked) [Compound 11, 1-(3-((7-(4-phenoxyphenyl)-1H-pyrazolo[3,4-c]pyridin-5-yl)amino)pyrrolidin-1-yl)prop-2-en-1-one] | < 0.1
11 | C=CC(=O)N1CC[C@@H](c2cc3cn[nH]c3c(-c3ccc(Oc4ccccc4)cc3)n2)C1 [Compound 22b, (R)-1-(3-(7-(4-phenoxyphenyl)-1H-pyrazolo[3,4-c]pyridin-5-yl)pyrrolidin-1-yl)prop-2-en-1-one] | < 0.1
12 | C=CC(=O)N1CCC(c2cc3cn[nH]c3c(-c3ccc(Oc4cccc(F)c4)cc3)n2)CC1 [Compound 15, 1-(4-(7-(4-(3-fluorophenoxyl)phenyl)-1H-pyrazolo[3,4-c]pyridin-5-yl)piperidin-1-yl)prop-2-en-1-one] | < 0.1
13 | C=CC(=O)N1CCN(c2cc3cn[nH]c3c(-c3ccc(Oc4ccccc4)cc3)n2)CC1 [Compound 9, 1-(4-(7-(4-phenoxyphenyl)-1H-pyrazolo[3,4-c]pyridin-5-yl)piperazin-1-yl)prop-2-en-1-one] | < 0.1
14 | C=CC(=O)N1CCC(c2cc3cn[nH]c3c(-c3ccc(Oc4ccccc4)cc3)n2)C1 (centres unmarked) [Compound 6, 1-(3-(7-(4-phenoxyphenyl)-1H-pyrazolo[3,4-c]pyridin-5-yl)pyrrolidin-1-yl)prop-2-en-1-one] | < 0.1
15 | C=CC(=O)N1CCCC(c2cc3cn[nH]c3c(-c3ccc(Oc4ccccc4)cc3)n2)C1 (centres unmarked) [Compound 3, 1-(3-(7-(4-phenoxyphenyl)-1H-pyrazolo[3,4-c]pyridin-5-yl)piperidin-1-yl)prop-2-en-1-one] | < 0.1
16 | C=CC(=O)N1CCC(c2cc3cn[nH]c3c(-c3ccc(Oc4ccccc4)cc3F)n2)CC1 [Compound 14, 1-(4-(7-(2-fluoro-4-phenoxyphenyl)-1H-pyrazolo[3,4-c]pyridin-5-yl)piperidin-1-yl)prop-2-en-1-one] | < 0.1
17 | C=CC(=O)N1CCC(c2cc3cn[nH]c3c(-c3ccc(Oc4ccccn4)cc3)n2)CC1 [Compound 13, 1-(4-(7-(4-(pyridin-2-oxy)phenyl)-1H-pyrazolo[3,4-c]pyridin-5-yl)piperidin-1-yl)prop-2-en-1-one] | < 0.1
18 | C=CC(=O)N1CCC(c2cc3cn[nH]c3c(-c3ccc(OC4CCCC4)cc3)n2)CC1 [Compound 12] | < 0.1
19 | C=CC(=O)N1CCC(c2cc3cn[nH]c3c(-c3ccc(C(=O)Nc4ccccn4)cc3)n2)C1 (centres unmarked) [Compound 18, 4-(5-(1-acryloylpyrrolidin-3-yl)-1H-pyrazolo[3,4-c]pyridin-7-yl)-N-(pyridin-2-yl) benzamide] | < 0.1
20 | C=CC(=O)N1CCC(c2cc3cn[nH]c3c(-c3ccc(CN4CCCC4)cc3)n2)CC1 [Compound 16, 1-(4-(7-(4-(pyrrolidin-1-ylmethyl)phenyl)-1H-pyrazolo[3,4-c]pyridin-5-yl)piperidin-1-yl)prop-2-en-1-one] | > 0.5
21 | CC#CC(=O)N1CCC(c2cc3cn[nH]c3c(-c3ccc(C(=O)Nc4ccccn4)cc3)n2)C1 (centres unmarked) [Compound 19, 4-(5-(1-(but-2-ynoyl)pyrrolidin-3-yl)-1H-pyrazolo[3,4-c]pyridin-7-yl)-N-(pyridin-2-yl)benzamide] | 0.1 to 0.5
22 | C=CC(=O)N1CCCC(c2cc(-c3ccc(Oc4ccccc4)cc3)c3[nH]ncc3c2)C1 (centres unmarked) [Compound 20, 1-(3-(7-(4-phenoxyphenyl)-1H-indazol-5-yl)piperidin-1-yl)prop-2-en-1-one] | < 0.1
23 | C=CC(=O)N1CCCC1c1cc2cn[nH]c2c(-c2ccc(Oc3ccccc3)cc2)n1 (centres unmarked) [Compound 21, 1-(2-(7-(4-phenoxyphenyl)-1H-pyrazolo[3,4-c]pyridin-5-yl)pyrrolidin-1-yl)prop-2-en-1-one] | < 0.1
